Data: ChEMBL document CHEMBL5727547, “Sodium channel modulators” (2020)

How the values were obtained:
[1] = (§1) Automated patch clamp (Inactivation State Block): Test Protocol for Determining the Potency of Compounds on Nav1.2 and Nav1.6 Subtypes of Voltage-Gated Sodium Ion Channels Expressed in Mammalian CellsCell culture procedures: Chinese hamster ovary (CHO) cells were stably transfected with the cDNA sequence of either the human SCN2A or SCN8A genes to create hNav1.2 or hNav1.6 cells respectively. The cell lines were cultured in Ham's F-12 medium supplemented with 10% fetal bovine serum and antibiotics in a tissue incubator at 37° C. under a humidified air/CO2 mixture (95/5 v/v). On the day of the experiment, cells were washed twice with Hank's balanced salt solution, treated with trypsin, and resuspended in fresh culture media at a density of 4−6×10^6 cells in 20 ml. Immediately before placing in the IonWorks Quattro instrument, cells were washed in Hank's balanced salt solution to remove culture medium and re-suspended in 3 ml of Hank's balanced salt solution. Automated patch clamp recordings of cells using the IonWorks Quattro Instrument: The assay used a 384 microwell plate, which enabled 20 compounds to be studied at four different concentrations in quadruplicate as well as allowing a vehicle control group and a positive control group using mexiletine at 8 different concentrations. Cells were added to the wells of the Population Patch Clamp planar electrode using a 48-channel pipettor in a volume of 6 μL, per well. After 5 minutes incubation at ambient temperature with compounds or vehicle, membrane currents were recorded using the patch clamp amplifier. The pulse pattern was repeated twice, before and after compound addition and peak current amplitudes were measured at TP12 to measure Inactivation State Block. Data analysis: Data acquisition and analyses were carried out using the IonWorks Quattro system operation software which uses an algorithm to correct data for leak currents. Concentration-response curves were fitted by non-linear least squares regression allowing calculation of an IC50 value (μM), being the concentration of the compound producing half-maximal inhibition.
[2] = as §1, with “(Tonic” for “(Inactivation State”, “TP11” for “TP12”, “10 Hz Frequency-dependent” for “Inactivation State”
[3] = Automated patch clamp (Tonic Block): Test Protocol for Determining the Potency of Compounds on Nav1.2 and Nav1.6 Subtypes of Voltage-Gated Sodium Ion Channels Expressed in Mammalian CellsCell culture procedures: Chinese hamster ovary (CHO) cells were stably transfected with the cDNA sequence of either the human SCN2A or SCN8A genes to create hNav1.2 or hNav1.6 cells respectively. The cell lines were cultured in Ham's F-12 medium supplemented with 10% fetal bovine serum and antibiotics in a tissue incubator at 37° C. under a humidified air/CO2 mixture (95/5 v/v). On the day of the experiment, cells were washed twice with Hank's balanced salt solution, treated with trypsin, and resuspended in fresh culture media at a density of 4−6×10^6 cells in 20 ml. Immediately before placing in the IonWorks Quattro instrument, cells were washed in Hank's balanced salt solution to remove culture medium and re-suspended in 3 ml of Hank's balanced salt solution. Automated patch clamp recordings of cells using the IonWorks Quattro Instrument: The assay used a 384 microwell plate, which enabled 20 compounds to be studied at four different concentrations in quadruplicate as well as allowing a vehicle control group and a positive control group using mexiletine at 8 different concentrations. […]

Compound	IC50 [1] [µM]	IC50 [2] [µM]	IC50 [3] [µM]
Cc1n[nH]c(C)c1OCCCNC(c1ccccn1)c1ccccn1	> 10	> 10	–
Cc1nn(C)c(C)c1OCCCNCc1cccc(-c2cncnc2)c1	> 10	> 10	–
Cc1nn(C)c(C)c1OCCCNC(c1ccccn1)c1ccccn1	> 10	> 10	–
Cc1cccc(C)c1OCCCNCc1cc(C(C)(C)C)cc(C(C)(C)C)c1	> 10	> 10	–
Cc1cccc(C)c1OCCCNCc1ccc(-c2ccccc2)cc1	> 1000	> 1000	–
Cc1cccc(C)c1OCCCNCc1cccc(C(F)(F)F)c1	> 10	> 10	> 10
Cc1cccc(C)c1OCCCNC(c1ccccn1)c1ccccn1	0.1	–	–
Cc1n[nH]c(C)c1OCCCNCc1cccc(-c2cncnc2)c1	> 10	> 10	–
Cc1cccc(C)c1OCCCNCc1cccc(C#N)c1	2	2	–
